# Measured values taken from patent publication US20130253449A1, “NORADRENERGIC AND SPECIFIC SEROTONERGIC ANTIDEPRESSANT-CONTAINING TRANSDERMAL PATCH” (priority 2010, published 2013).
# Tests used:
# [1] = system: brain monoamine (NA, DA and 5-HT); assay: Measurement of brain monoamine level (microdialysis, prefrontal region) during 12-hour mirtazapine administration; assay type: in vivo, rat
# Experimental: Rats (male, body weight: 200 to 300 g, n=5) were anesthetized by inhalation of isoflurane, and then a cannula for long-term continuous administration was buried under the skin of each rat and a guide (microdialysis) was in the prefrontal region thereof. In 5 to 7 days after the guide insertion, a probe for measurement of monoamine in the brain was inserted into the prefrontal region, and via the microsyringe pump connected to the probe, a perfusate was perfused at a flow rate of 0.5 μL/min. For mirtazapine administration, a mirtazapine 3 mg/mL/kg solution was administered in a predetermined dose via the microsyringe pump, taking 12 hours. A Ringer' s solution was used as the perfusate, which was collected at intervals of 1 hour using a fraction collector.
# (§1) Monoamine was measured from the perfusate collected by the fraction collector, and mirtazapine was measured from the plasma sample through HPLC.
# [2] = Measurement of plasma mirtazapine level during 12-hour mirtazapine administration; assay type: in vivo; conditions: rat, subcutaneous, 6 hours after start of administration, 3 mg/mL/kg over 12 hours, read-out: mean concentration of mirtazapine in rat plasma (mean±SEM)
# Experimental: Next, at the same dose mode and through the same administration route as above, mirtazapine (3 mg/mL/kg) was administered in a predetermined dose, taking 12 hours, and in 6 hours after the start, the blood was collected. The time at which the administration was started was referred to as the test start time. Heparin was added to the collected blood and then centrifuged, and the thus-separated plasma was the sample.
# as §1
# [3] = 18 hours after start of administration, mirtazapine 3 mg/mL/kg solution over 12 hours
smiles,measurement,setting,value
CN1CCN2c3ncccc3Cc3ccccc3C2C1 (stereo not shown) [mirtazapine],NA and DA in rat prefrontal region,[1]; 1 hour after start of mirtazapine administration,increase in NA and DA was admitted
same,NA level in rat prefrontal region (mean±SEM),"[1]; 7 hours after start of administration, mirtazapine 3 mg/mL/kg solution over 12 hours, n=5",184.7±17.3%
same,DA level in rat prefrontal region,"[1]; 8 hours after start of administration, mirtazapine 3 mg/mL/kg solution over 12 hours, n=5",222.1±38.5%
same,DA level in rat prefrontal region,[1]; [3],159.2±15.6%
same,NA level in rat prefrontal region,[1]; [3],124.2±10.7
same,influence on 5-HT in rat prefrontal region,[1]; mirtazapine 3 mg/mL/kg solution over 12 hours,no influence on 5-HT was admitted
same,concentration at 6 h,[2],27.5 ± 3.5 ng/mL
